Source: patent US9969752B2, “Inhibitors of HIF prolyl hydroxylase” (MERCK SHARP & DOHME CORP., priority 2014, dated 2018)

molecular target: T1, Human HIF-PHD2 (Homo sapiens, UniProt Q9GZT9); test: Inhibition of the hydroxylation of a HIF peptide by PHD2 (time resolved fluorescence, 384-well); assay type: biochemical; conditions: FLAG-tagged full length PHD2; 0.2 μM 2-oxoglutarate, 0.5 μM HIF-1α peptide; 45 minutes at room temperature; read-out: Human HIF-PHD2 IC50
T1 construct: FLAG-tagged full length PHD2 expressed in and purified from baculovirus-infected Sf9 cells; FLAG; made in house; host or cells: baculovirus-infected Sf9 cells
T1 sequence (Q9GZT9 whole entry): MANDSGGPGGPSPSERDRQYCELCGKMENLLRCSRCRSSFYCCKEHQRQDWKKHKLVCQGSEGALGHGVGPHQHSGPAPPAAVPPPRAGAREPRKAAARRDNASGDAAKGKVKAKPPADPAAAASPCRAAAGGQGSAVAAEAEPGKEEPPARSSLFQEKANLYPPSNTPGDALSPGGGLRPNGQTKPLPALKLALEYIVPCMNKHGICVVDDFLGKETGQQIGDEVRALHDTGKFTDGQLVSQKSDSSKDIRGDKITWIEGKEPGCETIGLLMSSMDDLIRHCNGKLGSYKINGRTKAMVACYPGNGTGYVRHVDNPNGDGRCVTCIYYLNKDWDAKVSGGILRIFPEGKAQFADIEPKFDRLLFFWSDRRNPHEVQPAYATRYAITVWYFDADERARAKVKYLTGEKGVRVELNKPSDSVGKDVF

| IC50 [nM] | Compound |
| --- | --- |
| 12 | O=C(O)CNC(=O)c1c(O)c2cc(-c3ccn[nH]3)cc3c2n(c1=O)C(c1ccc(C(F)(F)F)cc1)CO3 (centres unmarked) [Example 185, 2-(7-Hydroxy-5-oxo-9-(1H-pyrazol-5-yl)-3-(4-(trifluoromethyl)phenyl)-3,5-dihydro-2H-[1,4]oxazino[2,3,4-ij]quinoline-6-carboxamido)acetic acid] |
| 15 | CS(=O)(=O)c1ccc(C2COc3cccc4c(O)c(C(=O)NCC(=O)O)c(=O)n2c34)cc1 (centres unmarked) [Example 183, Ammonium 2-(7-hydroxy-3-(4-(methylsulfonyl)phenyl)-5-oxo-3,5-dihydro-2H-[1,4]oxazino[2,3,4-ij]quinoline-6-carboxamido)acetate] |
| 38 | CS(=O)(=O)Nc1ccc(-c2ccc3c(O)c(C(=O)NCC(=O)O)c(=O)n4c3c2OCC4c2ccc(C(F)(F)F)cc2)cc1 (centres unmarked) [Example 134, N-[(7-Hydroxy-10-{4-[(methylsulfonyl)amino]phenyl}-5-oxo-3-[4-(trifluoromethyl)phenyl]-2,3-dihydro-5H-[1,4]oxazino[2,3,4-ij]quinolin-6-yl)carbonyl]glycine] |
| 4.6 | O=C(O)CNC(=O)c1c(O)c2cc(F)cc3c2n(c1=O)CC(c1ccc(C(F)(F)F)cc1)N3 (centres unmarked) [Example 120, 2-(9-Fluoro-7-hydroxy-5-oxo-2-(4-(trifluoromethyl)phenyl)-1,2,3,5-tetrahydropyrido[1,2,3-de]quinoxaline-6-carboxamido)acetic acid] |

Continued, compound first:

| Compound | IC50 [nM] |
| --- | --- |
| CS(=O)(=O)c1ccc2c(O)c(C(=O)NCC(=O)O)c(=O)n3c2c1OC(c1ccc(C(F)(F)F)cc1)C3 (single isomer, unassigned) [Example 24, 2-(7-Hydroxy-10-(methylsulfonyl)-5-oxo-2-(4-(trifluoromethyl)phenyl)-3,5-dihydro-2H-[1,4]oxazino[2,3,4-ij]quinoline-6-carboxamido)acetic acid] | 1.3 |
| O=C(O)CNC(=O)c1c(O)c2ccc(F)c3c2n(c1=O)C(c1ccc(C(F)(F)F)cc1)CN3 (centres unmarked) [Example 115, 2-(10-Fluoro-7-hydroxy-5-oxo-3-(4-(trifluoromethyl)phenyl)-1,2,3,5-tetrahydropyrido[1,2,3-de]quinoxaline-6-carboxamido)acetic acid] | 13 |
| CN1CC(c2cncs2)n2c(=O)c(C(=O)NCC(=O)O)c(O)c3cccc1c32 (centres unmarked) [Example 113, 2-(7-Hydroxy-1-methyl-5-oxo-3-(thiazol-5-yl)-1,2,3,5-tetrahydropyrido[1,2,3-de]quinoxaline-6-carboxamido)acetic acid] | 125 |
| O=C(O)CNC(=O)c1c(O)c2cccc3c2n(c1=O)CC(c1ccc(C(F)(F)F)cc1)C3 (centres unmarked) [Example 9, 2-(1-Hydroxy-3-oxo-6-(4-(trifluoromethyl)phenyl)-3,5,6,7-tetrahydropyrido[3,2,1-ij]quinoline-2-carboxamido)acetic acid] | 7.2 |
| CS(=O)(=O)c1ccc2c(O)c(C(=O)NCC(=O)O)c(=O)n3c2c1OC(c1ccc(C(F)(F)F)cc1)C3 (single isomer, unassigned) [Example 23, 2-(7-Hydroxy-10-(methylsulfonyl)-5-oxo-2-(4-(trifluoromethyl)phenyl)-3,5-dihydro-2H-[1,4]oxazino[2,3,4-ij]quinoline-6-carboxamido)acetic acid] | 1.6 |
| Cc1ccc2c(O)c(C(=O)NCC(=O)O)c(=O)n3c2c1CCC3 [Example 46, 2-(1-Hydroxy-8-methyl-3-oxo-3,5,6,7-tetrahydropyrido[3,2,1-ij]quinoline-2-carboxamido)acetic acid] | 18 |
| O=C(O)CNC(=O)c1c(O)c2cccc3c2n(c1=O)CC(c1ccc(C(F)(F)F)nc1)S3(=O)=O (centres unmarked) [Example 104, 2-(7-Hydroxy-1,1-dioxido-5-oxo-2-(6-(trifluoromethyl)pyridin-3-yl)-3,5-dihydro-2H-[1,4]thiazino[2,3,4-ij]quinoline-6-carboxamido)acetic acid] | 6.3 |
| O=C(O)CNC(=O)c1c(O)c2ccc(F)c3c2n(c1=O)CC(c1ccc(C(F)(F)F)cc1)N3 (centres unmarked) [Example 116, 2-(10-Fluoro-7-hydroxy-5-oxo-2-(4-(trifluoromethyl)phenyl)-1,2,3,5-tetrahydropyrido[1,2,3-de]quinoxaline-6-carboxamido)acetic acid] | 8.8 |
| CN1CC(c2ccc(C(F)(F)F)cc2)n2c(=O)c(C(=O)NCC(=O)O)c(O)c3ccc(F)c1c32 (centres unmarked) [Example 117, 2-(10-Fluoro-7-hydroxy-1-methyl-5-oxo-3-(4-(trifluoromethyl)phenyl)-1,2,3,5-tetrahydropyrido[1,2,3-de]quinoxaline-6-carboxamido)acetic acid] | 55 |
| CC(=O)c1cc2c3c(c1)c(O)c(C(=O)NCC(=O)O)c(=O)n3C(Cc1ccc(C(F)(F)F)cc1)CO2 (centres unmarked) [Example 34, 2-(9-acetyl-7-hydroxy-5-oxo-3-(4-(trifluoromethyl)benzyl)-3,5-dihydro-2H-[1,4]oxazino[2,3,4-ij]quinoline-6-carboxamido)acetic acid] | 3.2 |
| CS(=O)(=O)c1ccc2c(O)c(C(=O)NCC(=O)O)c(=O)n3c2c1CCC3 [Example 45, 2-(1-Hydroxy-8-(methylsulfonyl)-3-oxo-3,5,6,7-tetrahydropyrido[3,2,1-ij]quinoline-2-carboxamido)acetic acid] | 1.1 |
| COc1ccc2c3c1c(O)c(C(=O)NCC(=O)O)c(=O)n3CC(c1ccc(C(F)(F)F)cc1)O2 (centres unmarked) [Example 79, 2-(7-hydroxy-8-methoxy-5-oxo-2-(4-(trifluoromethyl)phenyl)-3,5-dihydro-2H-[1,4]oxazino[2,3,4-ij]quinoline-6-carboxamido)acetic acid] | 4 |
| Cc1cc2c3c(c1)c(O)c(C(=O)NCC(=O)O)c(=O)n3CCO2 [Example 43, 2-(7-hydroxy-9-methyl-5-oxo-3,5-dihydro-2H-[1,4]oxazino[2,3,4-ij]quinoline-6-carboxamido)acetic acid] | 24 |
| O=C(O)CNC(=O)c1c(O)c2cccc3c2n(c1=O)C(c1ccc(C(F)(F)F)cc1)CN3 (centres unmarked) [Example 106, 2-(7-Hydroxy-5-oxo-3-(4-(trifluoromethyl)phenyl)-1,2,3,5-tetrahydropyrido[1,2,3-de]quinoxaline-6-carboxamido)acetic acid] | 27 |
| N#Cc1ccc2c3c1c(O)c(C(=O)NCC(=O)O)c(=O)n3CC(c1ccc(C(F)(F)F)cc1)S2 (centres unmarked) [Example 97, 2-(8-Cyano-7-hydroxy-5-oxo-2-(4-(trifluoromethyl)phenyl)-3,5-dihydro-2H-[1,4]thiazino[2,3,4-ij]quinoline-6-carboxamido)acetic acid] | 1.5 |
| CN1CC(c2ccc(C(F)(F)F)cc2)n2c(=O)c(C(=O)NCC(=O)O)c(O)c3cc(C#N)cc1c32 (centres unmarked) [Example 95, 2-(9-Cyano-7-hydroxy-1-methyl-5-oxo-3-(4-(trifluoromethyl)phenyl)-1,2,3,5-tetrahydropyrido[1,2,3-de]quinoxaline-6-carboxamido)acetic acid] | 5.5 |

same assay, conditions: FLAG-tagged full length PHD2; 0.2 μM 2-oxoglutarate, 0.5 μM HIF-1α peptide; 45 minutes at room temperature; read-out: MS m/z (M + 1)+ and human HIF-PHD2 IC50

| IC50 [nM] | Compound |
| --- | --- |
| 19 | CS(=O)(=O)c1cc2c3c(c1)c(O)c(C(=O)NCC(=O)O)c(=O)n3C(c1ccc(C(F)(F)F)cc1)CO2 (centres unmarked) [Example 184, ammonium 2-(7-hydroxy-9-(methylsulfonyl)-5-oxo-3-(4-(trifluoromethyl)phenyl)-3,5-dihydro-2H-[1,4]oxazino[2,3,4-ij]quinoline-6-carboxamido)acetate] |
| 13 | N#Cc1cccc(-c2ccc(C3COc4cccc5c(O)c(C(=O)NCC(=O)O)c(=O)n3c45)cc2)c1 (centres unmarked) [Example 150, N-{[3-(3′-cyanobiphenyl-4-yl)-7-hydroxy-5-oxo-2,3-dihydro-5H-[1,4]oxazino[2,3,4-ij]quinolin-6-yl]carbonyl}glycine] |
| 19 | O=C(O)CNC(=O)c1c(O)c2ccc(Cl)c3c2n(c1=O)C(c1ccc(C(F)(F)F)cc1)CO3 (centres unmarked) [Example 165, 2-(10-chloro-7-hydroxy-5-oxo-3-(4-(trifluoromethyl)phenyl)-3,5-dihydro-2H-[1,4]oxazino[2,3,4-ij]quinoline-6-carboxamido)acetic acid] |
| 8.1 | Nc1ccc(-c2ccc3c(O)c(C(=O)NCC(=O)O)c(=O)n4c3c2OCC4)cn1 [Example 156, N-{[10-(6-aminopyridin-3-yl)-7-hydroxy-5-oxo-2,3-dihydro-5H-[1,4]oxazino[2,3,4-ij]quinolin-6-yl]carbonyl}glycine] |
| 12 | O=C(O)CNC(=O)c1c(O)c2ccc(-c3cncnc3)c3c2n(c1=O)C(c1ccc(C(F)(F)F)cc1)CO3 (centres unmarked) [Example 138, N-({7-hydroxy-5-oxo-10-pyrimidin-5-yl-3-[4-(trifluoromethyl)phenyl]-2,3-dihydro-5H-[1,4]oxazino[2,3,4-ij]quinolin-6-yl}carbonyl)glycine] |
| 19 | O=C(O)CNC(=O)c1c(O)c2ccc(-c3ccccn3)c3c2n(c1=O)C(c1ccc(C(F)(F)F)cc1)CO3 (centres unmarked) [Example 136, N-({7-hydroxy-5-oxo-10-pyridin-2-yl-3-[4-(trifluoromethyl)phenyl]-2,3-dihydro-5H-[1,4]oxazino[2,3,4-ij]quinolin-6-yl}carbonyl)glycine] |
| 7.3 | O=C(O)CNC(=O)c1c(O)c2c(F)ccc3c2n(c1=O)C(c1cncs1)CO3 (centres unmarked) [Example 172, 2-(8-fluoro-7-hydroxy-5-oxo-3-(thiazol-5-yl)-3,5-dihydro-2H-[1,4]oxazino[2,3,4-ij]quinoline-6-carboxamido)acetic acid] |
| 5.4 | O=C(O)CNC(=O)c1c(O)c2cccc3c2n(c1=O)C(c1cnc(C(F)(F)F)s1)CO3 (centres unmarked) [Example 171, 2-(7-hydroxy-5-oxo-3-(2-(trifluoromethyl)thiazol-5-yl)-3,5-dihydro-2H-[1,4]oxazino[2,3,4-ij]quinoline-6-carboxamido)acetic acid] |
| 4.6 | N#Cc1cc2c3c(c1)c(O)c(C(=O)NCC(=O)O)c(=O)n3C(c1ccc(C(F)(F)F)cc1)CO2 (centres unmarked) [Example 179, ammonium 2-(9-cyano-7-hydroxy-5-oxo-3-(4-(trifluoromethyl)phenyl)-3,5-dihydro-2H-[1,4]oxazino[2,3,4-ij]quinoline-6-carboxamido)acetate] |
